Measurements from patent US6919365B2, “Imidazolidinedione derivatives and use thereof as drugs” (Senju Pharmaceutical Co., Ltd., priority 2001, dated 2005).

Columns and labels:
human lung tryptase = assay: Tryptase inhibition activity (fluorogenic substrate Boc-Val-Pro-Arg-MCA); type: biochemical; conditions: pH7.1, 30° C., 30 minutes
Procedure: Then, the tryptase inhibition activity was measured according to the method of Muramatsu et al. (Biol. Chem. Hoppe-Seyler, vol.369, pp617(1988)). That is, 62.5 μL of a solution adjusted so that the enzyme activity of human lung tryptase (manufactured by Sigma) became 7.9 μUnit with 0.1M phosphate buffer-1.5M NaCl (pH7.1), was added to 2.5 μL of a test substance dissolved in DMSO, a temperature was retained at 30° C. for 5 minutes, and 125 μL of 0.6mM Boc-Val-Pro-Arg-MCA. HCl (manufactured by BACHEM)/0.1M phosphate buffer (pH7.1) as a substrate was added to obtain a reaction solution. The reaction solution was set at a multi-well plate reader CYTOFLUOR Series 4000 (manufactured by Perceptive Biosystems), and a change in the fluorescent intensity was measured at 30° C. for 30 minutes with time (excitation wavelength 360 nm, detection wavelength 450 nm). As a control, 2.5 μL of DMSO containing no test substance was used, and treated and measured similarly. As a blank, 0.1M phosphate buffer-1.5M NaCl (pH7.1) was added in place of a tryptase solution, and treated and measured similarly.
A tryptase inhibition rate (%) was obtained by calculating a slope (S) of an approximation straight line for each test material, a slope (C) of an approximation straight line for a control, a slope (Bs) of an approximation straight line for a blank of each test substance, and a slope (Bc) of an approximation straight line for a blank of a control from a change in the fluorescent intensity, and calculating from the following equation. Inhibition rate (%)=[1−(S−Bs)/(C−Bc)]×100 Experimental Results
(§1) Regarding the compounds of the present invention, each 50% inhibition concentration (IC50) was calculated from the chymase and tryptase inhibition activity obtained by the aforementioned method.

[1] = molecular target: T1, recombinant human chymase (Homo sapiens, UniProt P23946); assay: Chymase inhibition activity (fluorogenic substrate Suc-Ala-Ala-Pro-Phe-MCA); type: biochemical; conditions: 30° C., 30 minutes
T1 sequence (P23946 22-247): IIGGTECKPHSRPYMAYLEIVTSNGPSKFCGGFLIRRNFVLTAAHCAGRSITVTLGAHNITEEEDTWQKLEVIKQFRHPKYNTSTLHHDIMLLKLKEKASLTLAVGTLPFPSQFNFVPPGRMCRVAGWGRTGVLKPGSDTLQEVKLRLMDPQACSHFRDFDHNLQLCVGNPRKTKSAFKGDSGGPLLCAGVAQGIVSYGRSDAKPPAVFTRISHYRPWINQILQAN
Procedure: The chymase inhibition activity was measured according to the method of Kato et al. (J. Biochem., Vol.103, pp820(1988)). That is, 72.5 μL of a solution adjusted so that the enzyme activity of recombinant human chymase (JP-A No.10-87567) became 2.3 μUnit with HEPES buffer, was added to 2.5 μL of a test substance dissolved in dimethyl sulfoxide (DMSO), a temperature was retained at 30° C. for 5 minutes, and 125 μL of 0.6 mM Suc-Ala-Ala-Pro-Phe-MCA (manufactured by Peptide Institute Inc.)/Tris buffer as a substrate was added to obtain a reaction solution. The reaction solution was set at a multi-well plate reader CYTOFLUOR Series 4000 (manufactured by Perceptive Biosystems), and a change in the fluorescent intensity was measured at 30° C. for 30 minutes with time (excitation wavelength 360 nm, detection wavelength 450 nm).
As a control, 2.5 μL of DMSO containing no test substance was used, and this was treated and measured similarly. As a blank, a Tris hydrochloric acid buffer was added instead of a chymase solution, and treated and measured similarly.
The chymase inhibition rate (%) was obtained by calculating a slope (S) of an approximation straight line for each test substance, a slope (C) of an approximation straight line for a control, a slope (Bs) of an approximation straight line for a blank of each test substance, and a slope (Bc) of approximation straight line for a blank of a control from a change in the fluorescent intensity, and calculating from the following equation. Inhibition rate (%)=[1−(S−Bs)/(C−Bc)]×100
as §1

[2] = test system: rat mast cells (intraperitoneal cell suspension, PEC); assay: Rat mast cell histamine release inhibition test; type: cell-based; conditions: for Inhibition rate (%) of release of histamine from mast cells: phosphatidylserine and concanavalin A stimulated
Procedure: A rat was killed by exsanguinations under ether anesthesia, and 30 mL of a buffer for mast cells (150 mM NaCl, 3.7 mM KCl, 3.0 mM Na2HPO4, 1 mM CaCl2, 5.6 mM glucose) was injected intraperitoneally. An abdominal part was massaged for 90 seconds, and a suspension of intraperitoneal cell was taken. A suspension of an intraperitoneal cell collected from 5 animals was centrifuged at 100 G at 4° C. for 5 minutes, a buffer for mast cells was added, washed three times and, finally, adjusted so that the number of mast cells became 3 to 5×10^5 cells/mL (hereinafter, this solution is abbreviated as PEC).
Compound 5 was dissolved in DMSO to prepare a test drug solution at each concentration (final DMSO concentration 0.8%). 100 μL of the test drug solution was added to 400 μL of the prepared PEC, and pre-incubated at 37° C. for 15 minutes. After pre-incubation, each 50 μL of a solution of phosphatidylserine (10 μg/ml) and concanavalin A(15 μg/ml) which is a histamine-releasing substance was added, and further incubated for 20 minutes. 1.4 mL of an ice-cooled buffer for mast cells was added to stop the reaction, and centrifuged at 250 G at 4° C. for 10 minutes. An amount of the histamine supernatant was quantitated using a fluorescent method. That is, 20 μL of 1N NaOH was added to 40 μL of the supernatant, 20 μL of a 1% o-phthalaldehyde solution in methanol was further added, and allowed to stand at room temperature for 5 minutes. Thereafter, 20 μL of 3N hydrochloric acid was added, and the fluorescent intensity was measured at an excitation wavelength of 350 nm and a fluorescent wavelength of 450 nm to obtain an amount of histamine.
A histamine release inhibition rate (%) was calculated from the following equation: Inhibition rate (%)=[1−(S−B)/(C−B)]×100 • S: amount of histamine in the supernatant, C: amount of histamine in control, B: amount of histamine in blank Test Results

Molecule	IC50 (human lung tryptase) [µM]	IC50 [1] [µM]	also measured
1-(3-Chlorobenzyl)-5,5-dimethyl-3-naphthylcarbonylimidazolidine-2,4-dione [Compound 28]	2.2	2.2	
1-Isobutyl-3-naphthylcarbonyl-5,5-diphenylimidazolidine -2,4-dione [Compound 23]	4.4	0.28	
1-Methyl-3-naphthylcarbonyl-5,5-diphenylimidazolidine-2,4-dione [Compound 22]	0.089	3.5	
3-Naphthylcarbonyl-1,3-diazaspiro[4.5]decane-2,4-dione [Compound 34]	0.28	32	
3-Naphthylcarbonyl-2,4-dioxo-5,5-diphenylimidazolidinylacetic acid [Compound 5]	0.97	1.2	Inhibition of release of histamine (in words) ([2]; 8 to 100 μM): inhibited release of histamine concentration-dependently; Inhibition rate (%) of release of histamine from mast cells ([2]; test drug concentration 8 μM): 28%; Inhibition rate (%) of release of histamine from mast cells ([2]; test drug concentration 40 μM): 59%; Inhibition rate (%) of release of histamine from mast cells ([2]; test drug concentration 80 μM): 78%; Inhibition rate (%) of release of histamine from mast cells ([2]; test drug concentration 100 μM): 83%
3-Naphthylcarbonyl-5,5-diphenylimidazolidine-2,4-dione [Compound 2]	0.046	0.34	
4-(5,5-Dimethyl-3-naphthylcarbonyl-2,4-dioxoimidazolidinylmethyl)benzonitrile [Compound 27]	7.1	0.54	
5,5- Dimethyl-3-naphthylcarbonylimidazolidine-2,4-dione [Compound 8]	3.2	30	
5,5-Dimethyl-1,3-bisnaphthylcarbonyl imidazolidine-2,4-dione [Compound 33]	1.5	1.8	
5,5-Dimethyl-3-naphthylcarbonyl-1,3-oxazolidine-2,4-dione [Compound 9]	1	0.73	
5,5-Dimethyl-3-naphthylcarbonyl-1-(2-oxo-2-phenylethyl)imidazolidine-2,4-dione [Compound 30]	7.2	3.3	
5-Methyl-3-naphthylcarbonyl-2,4-dioxo-5-phenylimidazolidinylacetic acid [Compound 16]	1.8	0.91	
O=C1NC(c2ccccc2)(c2ccccc2)C(=O)N1C(=O)c1ccc2ccccc2c1 [Compound 1, 3-(2-Naphthylcarbonyl)-5,5-diphenylimidazolidine-2,4-dione]	0.39	0.066	
CC1(c2ccccc2)NC(=O)N(C(=O)c2cccc3ccccc23)C1=O (centres unmarked) [Compound 7]	0.37	6.5	
CC1(c2ccccc2)C(=O)N(C(=O)c2cccc3ccccc23)C(=O)N1Cc1cccc(Cl)c1 (centres unmarked) [Compound 25, 1-(3-Chlorobenzyl)-5-methyl-3-naphthylcarbonyl-5-phenylimidazolidine-2,4-dione]	86	0.58	
Ethyl 2-(3-naphthylcarbonyl-2,4-dioxo-5,5-diphenylimidazolidinyl)acetate [Compound 3]	0.93	1	
Tert-butyl (5,5-dimethyl-3-naphthylcarbonyl-2,4-dioxoimidazolidinyl)acetate [Compound 13]	1.6	2.7	
tert-Butyl (5-methyl-3-naphthylcarbonyl-2,4-dioxo-5-phenylimidazolidinyl)acetate [Compound 14]	1.6	0.26	
